From patent publication US12486274B2, “Substituted pyrazolo-pyrimidines and uses thereof” (Verge Analytics, Inc., priority 2020, dated 2025) come the findings set out here.

Where only a bound is given, the exact number is not on record here.

Sequence of Full length human recombinant PIKFYVE (Q9Y2I7 whole entry): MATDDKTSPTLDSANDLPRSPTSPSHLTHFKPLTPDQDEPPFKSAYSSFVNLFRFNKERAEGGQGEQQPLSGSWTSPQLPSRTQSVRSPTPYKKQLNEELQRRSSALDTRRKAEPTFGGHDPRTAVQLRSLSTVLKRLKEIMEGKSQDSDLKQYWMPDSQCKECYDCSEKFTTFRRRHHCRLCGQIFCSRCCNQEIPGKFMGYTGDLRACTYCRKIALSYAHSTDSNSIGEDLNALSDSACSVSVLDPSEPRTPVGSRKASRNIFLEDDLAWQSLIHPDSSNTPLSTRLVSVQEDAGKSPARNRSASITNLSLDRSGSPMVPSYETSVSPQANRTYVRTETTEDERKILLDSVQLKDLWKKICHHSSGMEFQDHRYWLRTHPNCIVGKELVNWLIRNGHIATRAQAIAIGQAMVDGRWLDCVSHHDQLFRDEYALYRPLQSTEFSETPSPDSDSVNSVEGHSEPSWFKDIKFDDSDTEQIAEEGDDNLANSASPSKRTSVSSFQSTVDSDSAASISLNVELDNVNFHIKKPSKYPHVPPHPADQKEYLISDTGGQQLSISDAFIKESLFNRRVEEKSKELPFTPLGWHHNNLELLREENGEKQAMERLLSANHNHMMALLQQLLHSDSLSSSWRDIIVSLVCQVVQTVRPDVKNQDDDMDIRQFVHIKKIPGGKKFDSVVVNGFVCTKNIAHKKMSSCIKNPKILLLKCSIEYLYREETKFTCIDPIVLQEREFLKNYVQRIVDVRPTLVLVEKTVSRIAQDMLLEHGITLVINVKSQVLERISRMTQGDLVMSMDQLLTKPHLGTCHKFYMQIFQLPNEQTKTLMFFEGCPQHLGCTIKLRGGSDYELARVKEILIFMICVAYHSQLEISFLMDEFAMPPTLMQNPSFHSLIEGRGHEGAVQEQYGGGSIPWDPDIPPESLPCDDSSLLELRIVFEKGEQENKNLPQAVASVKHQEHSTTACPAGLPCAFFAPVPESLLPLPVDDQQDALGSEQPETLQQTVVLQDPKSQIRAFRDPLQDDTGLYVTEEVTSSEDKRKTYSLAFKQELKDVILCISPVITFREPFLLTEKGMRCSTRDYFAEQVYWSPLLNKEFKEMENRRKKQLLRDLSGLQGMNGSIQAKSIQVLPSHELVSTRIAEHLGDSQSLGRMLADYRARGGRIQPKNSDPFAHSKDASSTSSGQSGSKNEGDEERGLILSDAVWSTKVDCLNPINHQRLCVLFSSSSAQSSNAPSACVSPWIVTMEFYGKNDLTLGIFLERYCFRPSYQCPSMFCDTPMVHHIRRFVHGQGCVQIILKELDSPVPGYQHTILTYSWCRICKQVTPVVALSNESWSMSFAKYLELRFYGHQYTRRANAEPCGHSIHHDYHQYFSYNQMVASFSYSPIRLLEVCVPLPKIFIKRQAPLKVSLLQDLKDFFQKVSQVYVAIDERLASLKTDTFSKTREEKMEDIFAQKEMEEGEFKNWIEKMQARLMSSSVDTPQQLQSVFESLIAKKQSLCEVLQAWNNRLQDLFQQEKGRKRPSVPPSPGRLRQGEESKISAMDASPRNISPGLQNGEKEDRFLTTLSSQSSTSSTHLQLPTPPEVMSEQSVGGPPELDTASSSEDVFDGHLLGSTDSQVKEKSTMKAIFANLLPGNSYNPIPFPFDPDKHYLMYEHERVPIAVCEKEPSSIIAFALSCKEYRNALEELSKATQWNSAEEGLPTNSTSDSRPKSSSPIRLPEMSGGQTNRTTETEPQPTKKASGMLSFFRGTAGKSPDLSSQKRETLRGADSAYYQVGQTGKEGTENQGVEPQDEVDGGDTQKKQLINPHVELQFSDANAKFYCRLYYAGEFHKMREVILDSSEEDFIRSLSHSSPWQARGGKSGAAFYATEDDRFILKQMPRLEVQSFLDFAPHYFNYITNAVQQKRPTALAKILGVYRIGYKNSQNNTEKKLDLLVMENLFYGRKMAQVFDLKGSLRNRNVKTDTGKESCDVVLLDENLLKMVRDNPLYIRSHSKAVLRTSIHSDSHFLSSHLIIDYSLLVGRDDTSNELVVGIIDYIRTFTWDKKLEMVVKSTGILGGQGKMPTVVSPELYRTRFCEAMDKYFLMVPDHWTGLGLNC

For one experiment, the target named is Full length human recombinant PIKFYVE (Homo sapiens (Human), UniProt Q9Y2I7). The experiment is described as follows: Inhibition of PIKfyve (microfluidic electrophoresis kinase assay). The note with it: 2 nM enzyme, PI3P/PS substrate, 3 h at room temperature, 12 concentrations. The experiment is classed as biochemical. In short, it runs like this:
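GST-tagged full-length PIKfyve (baculovirus-expressed, 2 nM final) with fluorescent PI3P/PS substrate (1 μM PI3P) and […] in HEPES pH 7.5 with Mg2+/Mn2+, 1% DMSO, 3 h at room temperature; 12 concentrations. PI(3,5)P product and substrate separated by microfluidic electrophoresis; % inhibition from product/sum ratio.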
Usually IC50 stands for the concentration that gives 50% inhibition. As for `Cc1cccc(-c2ccn(-c3cc(N4CCOCC4)n4nc(C(=O)NC5CCCC5)cc4n3)n2)c1` [Example 36, N-cyclopentyl-7-morpholino-5-(3-(m-tolyl)-1H-pyrazol-1-yl)pyrazolo[1,5-a]pyrimidine-2-carboxamide], the IC50 turned out to be 21.6 nM.

For the molecule `Cc1cccc(-c2ccn(-c3cc(N4CCOCC4)n4nc(C(=O)N[C@H](C)C5CC5)cc4n3)n2)c1` [Example 21, (R)—N-(1-cyclopropylethyl)-7-morpholino-5-(3-(m-tolyl)-1H-pyrazol-1-yl)pyrazolo[1,5-a]pyrimidine-2-carboxamide], the 50% inhibitory concentration (IC50) was found to be 21.6 nM.

For `COc1cccc(-c2ccn(-c3cc(N4CCOCC4)n4nc(-c5cc(C)n(CCN(C)C)n5)cc4n3)n2)c1` [Compound 100, 2-[3-[5-[3-(3-methoxyphenyl)pyrazol-1-yl]-7-morpholino-pyrazolo[1,5-a]pyrimidin-2-yl]-5-methyl-pyrazol-1-yl]-N,N-dimethyl-ethanamine], the half-inhibitory concentration (IC50) was found to be 8.4 nM.

For the molecule `Cc1cccc(-c2ccn(-c3cc(N4CCOCC4)n4nc(C(=O)N5CC6(COC6)C5)cc4n3)n2)c1` [Example 45, (7-morpholino-5-(3-(m-tolyl)-1H-pyrazol-1-yl)pyrazolo[1,5-a]pyrimidin-2-yl) (2-oxa-6-azaspiro[3.3]heptan-6-yl)methanone], the IC50 amounted to 105 nM.

Turning to `Cc1cccc(-c2ccn(-c3cc(N4CCOCC4)n4nc(C(=O)N[C@H]5CCCN(C)C5)cc4n3)n2)c1` [Compound 53, N-[(3S)-1-methyl-3-piperidyl]-7-morpholino-5-[3-(m-tolyl)pyrazol-1-yl]pyrazolo[1,5-a]pyrimidine-2-carboxamide], the 50% inhibitory concentration (IC50) came to 26.8 nM.

As to `CCNC(=O)c1cc2nc(-n3ccc(-c4cccc(C)c4)n3)cc(N3CCOCC3)n2n1` [Example 19, N-ethyl-7-morpholino-5-(3-(m-tolyl)-1H-pyrazol-1-yl)pyrazolo[1,5-a]pyrimidine-2-carboxamide], the concentration for half-maximal inhibition (IC50) was 76.2 nM.

On to `CC(C)NC(=O)c1cc2nc(-n3ccc(-c4ccccc4)n3)cc(N3CCOCC3)n2n1` [Compound 73, N-isopropyl-7-morpholino-5-(3-phenylpyrazol-1-yl)pyrazolo[1,5-a]pyrimidine-2-carboxamide], for which the half-inhibitory concentration (IC50) turned out to be 335 nM.

Take `Cn1ccc(-c2cc3nc(-n4ccc(-c5ccccc5)n4)cc(N4CCOCC4)n3n2)n1` [Compound 66, 4-[2-(1-methylpyrazol-3-yl)-5-(3-phenylpyrazol-1-yl)pyrazolo[1,5-a]pyrimidin-7-yl]morpholine]: the IC50 came out at 104 nM.

Consider `c1ccc(-c2ccn(-c3cc(N4CCOCC4)n4nc(-c5cn[nH]c5)cc4n3)n2)cc1` [Compound 116, 4-[5-(3-phenylpyrazol-1-yl)-2-(1H-pyrazol-4-yl)pyrazolo[1,5-a]pyrimidin-7-yl]morpholine], for which the IC50 turned out to be 80.9 nM.

Consider `Nc1cccc(-c2cc3nc(-n4ccc(-c5ccccc5)n4)cc(N4CCOCC4)n3n2)n1` [Compound 109, 6-[7-morpholino-5-(3-phenylpyrazol-1-yl)pyrazolo[1,5-a]pyrimidin-2-yl]pyridin-2-amine], for which the half-inhibitory concentration (IC50) turned out to be 278 nM.

As for `Cc1cncc(-c2ccn(-c3cc(N4CCOCC4)n4nc(-c5cccnc5)cc4n3)n2)c1` [Compound 102, 4-[5-[3-(5-methyl-3-pyridyl)pyrazol-1-yl]-2-(3-pyridyl)pyrazolo[1,5-a]pyrimidin-7-yl]morpholine], the half-inhibitory concentration (IC50) was > 10000 nM.

Regarding `c1ccc(-c2cnn(-c3cc(N4CCOCC4)n4nc(-c5ccccn5)cc4n3)c2)cc1` [Compound 78, 4-[5-(4-phenylpyrazol-1-yl)-2-(2-pyridyl)pyrazolo[1,5-a]pyrimidin-7-yl]morpholine], the IC50 was determined as 441 nM.

Consider `Cc1cccc(-c2ccn(-c3cc(N4CCOCC4)n4nc(C(=O)NOC5COC5)cc4n3)n2)c1` [Example 47, 7-morpholino-N-(oxetan-3-yloxy)-5-(3-(m-tolyl)-1H-pyrazol-1-yl)pyrazolo[1,5-a]pyrimidine-2-carboxamide], for which the IC50 is 122 nM.

For the molecule `Cc1cccc(-c2ccn(-c3cc(N4CCOCC4)n4nc(-c5cc(C)no5)cc4n3)n2)c1` [Compound 110, 4-[2-(3-methylisoxazol-5-yl)-5-[3-(m-tolyl)pyrazol-1-yl]pyrazolo[1,5-a]pyrimidin-7-yl]morpholine], the 50% inhibitory concentration (IC50) was found to be 2.2 nM.

As to `Cc1cc(-c2cc3nc(-n4ccc(-c5cccc(Cl)c5)n4)cc(N4CCOCC4)n3n2)nn1CCN(C)C` [Compound 97, 2-[3-[5-[3-(3-chlorophenyl)pyrazol-1-yl]-7-morpholino-pyrazolo[1,5-a]pyrimidin-2-yl]-5-methyl-pyrazol-1-yl]-N,N-dimethyl-ethanamine], the IC50 is 126 nM.

Regarding `CCN(C)C(=O)c1cc2nc(-n3ccc(-c4cccc(C)c4)n3)cc(N3CCOCC3)n2n1` [Example 25, N-ethyl-N-methyl-7-morpholino-5-(3-(m-tolyl)-1H-pyrazol-1-yl)pyrazolo[1,5-a]pyrimidine-2-carboxamide], the concentration for half-maximal inhibition (IC50) came to 437 nM.

As for `COC(=O)NCc1cc2nc(-n3ccc(-c4ccccc4)n3)cc(N3CCOCC3)n2n1` [Compound 89, methyl N-[[7-morpholino-5-(3-phenylpyrazol-1-yl)pyrazolo[1,5-a]pyrimidin-2-yl]methyl]carbamate], the half-inhibitory concentration (IC50) was determined as 1400 nM.

Turning to `c1cc(-c2ccn(-c3cc(N4CCOCC4)n4nc(-c5ccncc5)cc4n3)n2)ccn1` [Example 15, 4-[2-(4-pyridyl)-5-[3-(4-pyridyl)pyrazol-1-yl]pyrazolo[1,5-a]pyrimidin-7-yl]morpholine], the IC50 was 1100 nM.

As to `C[C@H](NC(=O)c1cc2nc(-n3ccc(-c4ccccc4)n3)cc(N3CCOCC3)n2n1)C1CC1` [Compound 75, N-[(1S)-1-cyclopropylethyl]-7-morpholino-5-(3-phenylpyrazol-1-yl)pyrazolo[1,5-a]pyrimidine-2-carboxamide], the half-inhibitory concentration (IC50) turned out to be 334 nM.

Turning to `Cc1ccccc1-c1cc(Nc2cc(N3CCOCC3)n3nc(-c4ccncc4)cc3n2)n[nH]1` [Example 3, 7-morpholino-N-[5-(o-tolyl)-1H-pyrazol-3-yl]-2-(4-pyridyl)pyrazolo[1,5-a]pyrimidin-5-amine], the IC50 was 3150 nM.

Consider `c1ccc(-c2ccn(-c3cc(N4CCOCC4)n4nc(-c5ncccn5)cc4n3)n2)cc1` [Compound 63, 4-[5-(3-phenylpyrazol-1-yl)-2-pyrimidin-2-yl-pyrazolo[1,5-a]pyrimidin-7-yl]morpholine], for which the IC50 turned out to be 693 nM.

`Clc1cccc(-c2ccn(-c3cc(N4CCOCC4)n4nc(-c5cccnc5)cc4n3)n2)c1` [Compound 105, 4-[5-[3-(3-chlorophenyl)pyrazol-1-yl]-2-(3-pyridyl)pyrazolo[1,5-a]pyrimidin-7-yl]morpholine]: the half-inhibitory concentration (IC50) was > 10000 nM.

Take `c1ccc(-c2ccn(-c3cc(N4CCOCC4)n4nc(-c5ccncn5)cc4n3)n2)cc1` [Compound 68, 4-[5-(3-phenylpyrazol-1-yl)-2-pyrimidin-4-yl-pyrazolo[1,5-a]pyrimidin-7-yl]morpholine]: the IC50 stood at 1660 nM.

Consider `Cc1cccc(-c2ccn(-c3cc(N4CCOCC4)n4nc(C(=O)N[C@H]5CCOC5)cc4n3)n2)c1` [Compound 50, 7-morpholino-5-[3-(m-tolyl)pyrazol-1-yl]-N-[(3S)-tetrahydrofuran-3-yl]pyrazolo[1,5-a]pyrimidine-2-carboxamide], for which the IC50 is 18.4 nM.

For the molecule `COc1cccc(-c2ccn(-c3cc(N4CCOCC4)n4nc(-c5cccnc5)cc4n3)n2)c1` [Compound 107, 4-[5-[3-(3-methoxyphenyl)pyrazol-1-yl]-2-(3-pyridyl)pyrazolo[1,5-a]pyrimidin-7-yl]morpholine], the IC50 came to 7.1 nM.

In the case of `Cc1cccc(-c2ccn(-c3cc(N4CCOCC4)n4nc(-c5cc(C)nn5CCN(C)C)cc4n3)n2)c1` [Compound 83, N,N-dimethyl-2-[3-methyl-5-[7-morpholino-5-[3-(m-tolyl)pyrazol-1-yl]pyrazolo[1,5-a]pyrimidin-2-yl]pyrazol-1-yl]ethanamine], the 50% inhibitory concentration (IC50) was 22.6 nM.

With `Cn1ccc(-c2cc3nc(-n4ccc(-c5cccc(Cl)c5)n4)cc(N4CCOCC4)n3n2)n1` [Compound 101, 4-[5-[3-(3-chlorophenyl)pyrazol-1-yl]-2-(1-methylpyrazol-3-yl)pyrazolo[1,5-a]pyrimidin-7-yl]morpholine], the IC50 was determined as 41 nM.

The subject of the next experiment is HEK 293T transfected with plasmids containing TDP-43 Q331K mutation. Briefly: HEK/TDP Survival assay (Cell-Titer-Glo). The note with it: Homo sapiens; HEK 293T TDP-43 Q331K, 48 hrs, CTG readout. The experiment is classed as cell-based. The protocol: HEK/TDP Survival assay: Immortalized human embryonic kidney 293T (HEK 293T) were transfected with plasmids containing TDP-43 Q331K mutation, resulting in an increase in cell death that is biologically relevant to ALS patients. Cell death is measured as reductions in the amount of ATP, an indicator of metabolically active cells, that is quantified by a luminescence Cell-Titer-Glo® (CTG) reagent. Compounds are evaluated in this model for changes in CTG compared to no treatment group. Increased signal indicates improved survival (rescue) and decreased signal indicates decreased survival.
Cell rescue was measured in a 96-well format with eight different concentrations of the test compound over 48 hrs with 6 replicates. The Promega Cell-Titer-Glo® Luminescent Cell Viability Assay was used to quantify ATP, an indicator of metabolically active cells (see protocol: https://www.promega.com/-/media/files/resources/protocols/technical-manuals/101/celltiterglo-2-O-assay-protocol.pdf?la=en). The luminescence signal was detected using the PerkinElmer En Vision or Molecular Devices SpectraMax.
The effect of a compound at a given dose on cell viability was determined using a three step procedure. First, Hedge's g for the Cell Titer-Glo luminescence values using six untreated wells on every plate as a control was calculated. […] Finally, values from all compound-dose pairs were corrected for multiple hypothesis testing using the Empirical Bayes framework of Stephens, M. (False discovery rates: a new deal, Biostatistics, 18 [2], 2017, 275-294) yielding credible intervals for the measured effect and associated s values.
Briefly, this method computes a local false sign rate for each experiment. Analogous to the local false discovery rate of Efron, B. (Size, power and false discovery rates, Ann. Statist. 35 [4], 2007, 1351-1377) this value measures the confidence in the sign of each effect (rather than confidence in each effect being non-zero). The s values reported in the previous figures are the expected fraction of errors if estimating the sign of all effects with greater absolute local false sign rate, defined in analogy to the q value of Storey, JD (The positive false discovery rate: a Bayesian interpretation and the q-value, Ann. Statist. 31 [6] 2003, 2013-2035).
Drugs that yielded signed log s values greater than 3 were considered hits. This threshold was determined by a separate calibration experiment in which Cell Titer-Glo® was measured in blank plates consisting of untreated cells to assess the noise inherent in the assay. Data are presented as the maximal effect of rescue obtained from the dose-response curve.
As usually defined, the EC50 is the midpoint of the concentration-response curve. Low readings indicate higher potency in that assay, high ones lower potency in that assay. Molecule `Cc1cccc(-c2ccn(-c3cc(N4CCOCC4)n4nc(C(=O)NC5CCCC5)cc4n3)n2)c1` [Example 36, N-cyclopentyl-7-morpholino-5-(3-(m-tolyl)-1H-pyrazol-1-yl)pyrazolo[1,5-a]pyrimidine-2-carboxamide] had an EC50 of 67 nM.

Turning to `Cc1cccc(-c2ccn(-c3cc(N4CCOCC4)n4nc(C(=O)N[C@H](C)C5CC5)cc4n3)n2)c1` [Example 21, (R)—N-(1-cyclopropylethyl)-7-morpholino-5-(3-(m-tolyl)-1H-pyrazol-1-yl)pyrazolo[1,5-a]pyrimidine-2-carboxamide], the EC50 was found to be 110 nM.
